Test results reported in patent US20100129933A1, “METHOD FOR DETECTING THE BINDING BETWEEN MDM2 AND THE PROTEASOME” (Forschungszentrum Karlsruhe GmbH, priority 2007, published 2010).
Peptide text beside a SMILES is read from it. * marks the point of attachment. Cbz = O=C(OCc1ccccc1)*

What was measured:
HDM2 = molecular target: T1, HDM2 (Homo sapiens, UniProt Q00987); assay: Limited proteolysis of GST-HDM2 by trypsin; assay type: binding; conditions: 10 μM compound, 40 ng trypsin, 15 min on ice
T1 construct: made in house; host or cells: bacteria (pGEX-4T-2 vector)
T1 sequence (Q00987 whole entry): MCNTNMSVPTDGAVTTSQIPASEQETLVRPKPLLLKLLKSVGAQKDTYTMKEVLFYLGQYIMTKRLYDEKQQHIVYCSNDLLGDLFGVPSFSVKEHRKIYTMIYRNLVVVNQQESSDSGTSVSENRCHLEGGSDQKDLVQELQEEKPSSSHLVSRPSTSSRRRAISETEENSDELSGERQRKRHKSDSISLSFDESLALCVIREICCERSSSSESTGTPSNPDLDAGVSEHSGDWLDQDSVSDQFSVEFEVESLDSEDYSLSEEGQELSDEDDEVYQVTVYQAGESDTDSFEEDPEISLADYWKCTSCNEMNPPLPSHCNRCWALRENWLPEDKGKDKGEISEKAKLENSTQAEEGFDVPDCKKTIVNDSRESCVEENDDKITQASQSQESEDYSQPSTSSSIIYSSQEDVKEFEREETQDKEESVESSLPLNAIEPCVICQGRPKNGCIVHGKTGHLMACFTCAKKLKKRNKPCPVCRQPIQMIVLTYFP
Experimental: GST-HDM2, GST-HDMX were incubated with 10 μM of JNJ-#1 or with DMSO for control. Then 40 ng trypsin were added and the mixture was incubated for 15 min on ice. […] HDM2 was detected by incubating the membrane with the HDM2 antibodies 4B2, SMP14 and C18. Western blots were developed by ECL.
40 ng of trypsin were added and the mixture was incubated for 15 min on ice. Samples were separated by 10% SDS-PAGE gel and blotted onto Immobilon P membrane. The membrane was incubated with the anti-HDM2 antibody 4B2. The Western blot was developed by ECL.
Then 40 ng trypsin was added and the mixture was incubated for 15 min on ice. Proteolysis was stopped by addition of 2× sample buffer. Samples were loaded onto an 12 or 15% SDS-PAGE gel and HDM2 or HDMX were detected by Western blotting.

p53 ubiquitination = assay: Cellular p53 ubiquitylation assay in U2OS cells; assay type: cell-based; conditions: His-tagged ubiquitin, 10 μM, 2 hours
Experimental: After incubation ubiquitylated proteins were purified by adsorption to Ni2+-agarose and separated by SDS-PAGE. P53 was detected by Western blotting. (TCL: Total cell lysate)
To test this option, we performed an cellular ubiquitylation assay in the presence of the compound.

| Structure (SMILES) | proteolysis of GST-HDM2 by trypsin (HDM2) | ubiquitylation of p53 (p53 ubiquitination) |
| --- | --- | --- |
| CC(C)C[C@@H](C=O)NC(=O)[C@H](CC(C)C)NC(=O)[C@H](CC(C)C)NC(=O)OCc1ccccc1 [MG132] (Cbz-Leu-Leu-Leu-aldehyde) | had no affect | – |
| COc1ccc(C2=N[C@@H](c3ccc(Cl)cc3)[C@@H](c3ccc(Cl)cc3)N2C(=O)N2CCNC(=O)C2)c(OC(C)C)c1 [Nutlin-3] | – | strongly reduced |
